Where two headings read alike, the source gives them in different places.
Legend:
[1] = cited from earlier work; for VTE prevention versus enoxaparin 40 mg once daily: orthopedic surgery, historical Phase 3; for bleeding: Phase 2 orthopedic surgery studies and with antiplatelets after an ACS
[2] = Thorough QT (TQT) study in healthy adults; assay type: in vivo, human; details: single 400 mg dose
Experimental: Pharmacokinetic analysis was performed on the plasma concentrations of each participant.

[3] = system: intrinsic and final common pathways of the coagulation cascade (aPTT); test: Activated partial thromboplastin time (aPTT), AXIOMATIC-TKR Phase II; assay type: in vivo, human; details: enoxaparin 40 mg QD sc
From the text: As used herein, the term “activated partial thromboplastin time (aPTT)” refers to a measure of the intrinsic and final common pathways of the coagulation cascade. It represents the time, in seconds, for plasma to clot after addition of phospholipid, an intrinsic pathway activator, and calcium. […] The term ‘partial’ means phospholipid is present but no tissue factor. The normal and reference ranges vary depending on reagent and instrument combinations, particularly with the phospholipid composition.
In some embodiments, aPTT is measured as follows: Plasma samples are incubated with Actin FS aPTT assay reagent containing a standard amount of phospholipid and contact activator (ellagic acid) which activates the intrinsic coagulation pathway. After incubating for 3 minutes, calcium chloride is added to initiate coagulation and formation of a fibrin clot is measured optically. The time to clot formation (measured in seconds) is reported as the Activated Partial Thromboplastin Time (aPTT).
(§1) Assessment of the dose-response for the occurrence of any bleeding was a secondary objective.
(§2) PD analyses were performed on the PD analysis set, defined as subjects who had at least one valid blood sample drawn for PD. Descriptive statistics (N, mean, SD, median, range, CV (%) and IQ range) were used to summarize PD response at each nominal sampling time point by treatment group. Changes from baseline were summarized when applicable. PD response outside of limit of quantitation were not to be imputed and were to be noted in the summary statistics.

[4] = system: thrombin generation; test: Thrombin Generation Assay (TGA), AXIOMATIC-TKR Phase II; assay type: in vivo, human; details: enoxaparin 40 mg QD sc
From the text: As used herein, “Thrombin Generation Assay (TGA)” is a global coagulation assay that evaluates the thrombogenic capacity of a plasma sample and has been proposed that it may better reflect prothrombotic or hemorrhagic states than conventional clotting assays. In the traditional TGA, coagulation of citrated plasma is initiated through the extrinsic pathway by adding tissue factor, phospholipids, and calcium. For this study, in the in-vitro thrombin generation assay (TGA) using human platelet-rich plasma, and a kaolin slurry was used instead to initiate coagulation through the contact activation pathway. Thrombin generation is continuously monitored through the product released by cleavage of a thrombin-specific fluorogenic substrate. The generated thrombogram is used to determine several relevant parameters, including endogenous thrombin potential, defined as the area under the thrombin concentration vs. time curve. […]
as §2

[5] = system: participants undergoing primary unilateral elective TKR surgery; test: Total venous thromboembolism (VTE) in TKR patients, AXIOMATIC-TKR; assay type: in vivo, human; details: enoxaparin 40 mg once daily
[6] = target: T1, Factor XI (Homo sapiens, UniProt P03951); test: FXI clotting activity (FXI:c), AXIOMATIC-TKR Phase II; assay type: in vivo; details: enoxaparin 40 mg QD sc
T1 construct: aPTT one-stage clotting with FXI-deficient plasma
Experimental: As used herein, “Factor XI Clotting Activity” is determined utilizing an aPTT-based 1-stage clotting time assay. Serial dilutions of normal pooled plasma are mixed with FXI-depleted plasma and the clotting times are measured according to standard aPTT protocol, to establish a reference range. Subject test plasma is treated in the same way and compared with the reference plasma.
In some embodiments, the Factor XI Clotting Activity is measured as follows: Factor XI (FXI) activity is measured using a modification of the activated partial thromboplastin time (aPTT) using Actin FS (Siemens Healthcare) on the Siemens BCS®XP analyzer. […] The reference standard, at approximately 100%, is diluted by the BCS®XP analyzer in saline to generate pre-selected calibration levels of FXI. The calibration curve is plotted with FXI activity in percent (%) on the x-axis and clotting time in seconds on the y-axis. A log/lin regression curve fit is used. […] APTT reagent (Actin FS) is added and the mixture is incubated. Following incubation, calcium chloride is added to the mixture and the time to clot formation (measured optically) is compared to the time on the calibration curve. Samples are tested at the base dilution (1:10) prepared by the BCS®XP in saline.
as §1, §2

T1 sequence (P03951 19-625): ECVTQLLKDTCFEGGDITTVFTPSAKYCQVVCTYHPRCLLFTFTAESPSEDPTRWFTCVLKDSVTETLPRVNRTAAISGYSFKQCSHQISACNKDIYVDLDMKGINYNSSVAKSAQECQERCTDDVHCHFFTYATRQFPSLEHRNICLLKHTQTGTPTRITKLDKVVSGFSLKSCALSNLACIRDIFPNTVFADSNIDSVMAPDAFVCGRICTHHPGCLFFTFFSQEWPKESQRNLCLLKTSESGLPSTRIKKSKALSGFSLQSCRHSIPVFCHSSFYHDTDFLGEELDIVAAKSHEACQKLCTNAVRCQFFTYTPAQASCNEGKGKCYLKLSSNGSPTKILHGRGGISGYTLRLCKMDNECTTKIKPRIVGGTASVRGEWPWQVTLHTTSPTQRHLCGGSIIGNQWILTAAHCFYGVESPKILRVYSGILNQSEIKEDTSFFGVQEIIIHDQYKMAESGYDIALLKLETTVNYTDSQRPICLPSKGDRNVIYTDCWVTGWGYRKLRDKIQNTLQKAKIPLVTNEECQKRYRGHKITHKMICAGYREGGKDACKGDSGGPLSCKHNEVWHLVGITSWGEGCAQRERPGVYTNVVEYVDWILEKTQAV

COc1ccc(-n2nc(C(N)=O)c3c2C(=O)N(c2ccc(N4CCCCC4=O)cc2)CC3)cc1 [apixaban]
VTE prevention versus enoxaparin 40 mg once daily ([1]; 2.5 mg twice daily): superior to enoxaparin 40 mg once daily
bleeding [1]: dose-related bleeding

COc1c(N2C[C@@H]3CCCN[C@@H]3C2)c(F)cc2c(=O)c(C(=O)O)cn(C3CC3)c12 [moxifloxacin]
assay sensitivity (positive control) [2]: demonstrated
participants with treatment-emergent change from baseline of QTcB>60 ms ([2]; one participant): 1.7%

O=C(NC[C@H]1CN(c2ccc(N3CCOCC3=O)cc2)C(=O)O1)c1ccc(Cl)s1 [rivaroxaban]
VTE prevention versus enoxaparin 40 mg once daily ([1]; 10 mg once daily): superior to enoxaparin 40 mg once daily
bleeding [1]: dose-related bleeding

enoxaparin
aPTT, measured value, median ([3]; Day 1 2 h): 27.5 s
aPTT, measured value, median ([3]; Day 1 4 h): 27.75 s
aPTT, measured value, median ([3]; Day 2 Predose): 27.4 s
aPTT, measured value, median ([3]; Day 4 4 h): 26.1 s
aPTT, measured value, median ([3]; Day 4 Predose): 25.8 s
aPTT, measured value, median ([3]; Day 10-14): 25.9 s
ETP Lag Time, measured value, median ([4]; Day 1 2 h): 7.02 min
ETP Peak Height, measured value, mean ([4]; Day 1 2 h): 171.15 nmol/L
ETP Lag Time, measured value, mean ([4]; Day 1 4 h): 8.39 min
ETP Lag Time, measured value, median ([4]; Day 1 4 h): 6.83 min
ETP Peak Height, measured value, mean ([4]; Day 1 4 h): 183.54 nmol/L
ETP Peak Height, measured value, median ([4]; Day 1 4 h): 160.49 nmol/L
ETP Lag Time, measured value, mean ([4]; Day 2 Predose): 6.98 min
ETP Lag Time, measured value, median ([4]; Day 2 Predose): 5.7 min
ETP Peak Height, measured value, mean ([4]; Day 2 Predose): 232.14 nmol/L
ETP Peak Height, measured value, median ([4]; Day 2 Predose): 214.37 nmol/L
ETP Lag Time, measured value, mean ([4]; Day 4 4 h): 8.16 min
ETP Lag Time, measured value, median ([4]; Day 4 4 h): 7.44 min
ETP Peak Height, measured value, mean ([4]; Day 4 4 h): 210.21 nmol/L
ETP Peak Height, measured value, median ([4]; Day 4 4 h): 196.02 nmol/L
ETP Lag Time, measured value, mean ([4]; Day 4 Predose): 7.44 min
ETP Lag Time, measured value, median ([4]; Day 4 Predose): 5.96 min
ETP Peak Height, measured value, mean ([4]; Day 4 Predose): 250.47 nmol/L
ETP Peak Height, measured value, median ([4]; Day 4 Predose): 227.87 nmol/L
ETP Lag Time, measured value, mean ([4]; Day 10-14): 11.18 min
ETP Lag Time, measured value, median ([4]; Day 10-14): 8.11 min
ETP Peak Height, measured value, mean ([4]; Day 10-14): 213.56 nmol/L
ETP Peak Height, measured value, median ([4]; Day 10-14): 201.82 nmol/L
total VTE rate [5]: 21.4%
FXI:c, % change from baseline, mean ([6]; Day 1 4 h): −7.24%
FXI:c, % change from baseline, median ([6]; Day 1 4 h): −7.24%
FXI:c, measured value, mean ([6]; Day 1 4 h): 1.06
FXI:c, measured value, median ([6]; Day 1 4 h): 1.07
FXI:c, % change from baseline, mean ([6]; Day 10-14): 36.64%
FXI:c, % change from baseline, median ([6]; Day 10-14): 37.21%
FXI:c, measured value, mean ([6]; Day 10-14): 1.36
FXI:c, measured value, median ([6]; Day 10-14): 1.39
